In this assay the test system is PGE2 production from IL-1β-stimulated MG-63 cells. The assay is described as follows: Suppressing action on PGE2 production from IL-1β-stimulated MG-63 cells. Type of assay: cell-based. The note with it: Homo sapiens, IL-1β 1 ng/ml, 18 hours, read-out: PGE2 production suppression ratio. From the text: 1. Suppressing Action on PGE2 Production from IL-1β-Stimulated MG-63 Cells (1) Method for Measurement
An action of suppressing PGE2 production caused by interleukin (IL) 1β as an inflammatory stimulant was studied by the following method. Cells of MG-63, which is a human osteosarcoma cell line (purchased from Dainippon Pharmaceutical), were suspended in EMEM medium (GIBCO) containing 10% fetal bovine serum (BioFluid), and then inoculated to each well of 96-well culture plate at a density of 2×10^4 cells/well and cultured overnight. The medium was changed to EMEM medium containing 0.5% fetal bovine serum, and then a test compound was added with each well. Human interleukin-1β (ENDOGEN) was further added as an inflammatory stimulant at a final concentration of 1 ng/ml. The cells were further cultured for 18 hours. The culture supernatant was collected, and the PGE2 concentration in the culture supernatant was measured by using EIA kit (CAYMAN). By using a well which was not added with the stimulant as a negative control and a well which was added only with the stimulant as a positive control, suppression ratios on PGE2 production were calculated from produced amounts of PGE2 in the well added with the test compound using the following equation. PGE2 production suppression ratio=[1−(C−B)/(A−B)]×100 • A: PGE2 production amount of positive control • B: PGE2 production amount of negative control • C: PGE2 production amount in well added with test compound
In the case of `O=C(O)CCc1ccc(OC2CCCCC2)c(-c2ccc3ncsc3c2)c1` [Compound 330, 3-[3-(benzothiazol-6-yl)-4-cyclohexyloxyphenyl]propionic acid], the inhibition at 0.4 µM was not below 50%.

In the case of `COC(=O)CCc1cc(-c2ccc3ccccc3c2)c(OC2CCCC2)c([N+](=O)[O-])c1` [Compound 331, methyl 3-[4-cyclopentyloxy-3-(naphthalen-2-yl)-5-nitrophenyl]propionate], the inhibition at 0.4 µM was not below 50%.

Consider `Nc1cc(CCC(=O)O)cc(-c2ccc3ccccc3c2)c1OC1CCCC1` [Compound 333, 3-[3-amino-4-cyclopentyloxy-5-(naphthalen-2-yl)phenyl]propionic acid], for which the inhibition at 0.4 µM was not below 50%.

`O=C(O)CCc1cc(O)c(OCC2CCCC2)c(-c2ccc3ccccc3c2)c1` [Compound 568, 3-[4-cyclopentylmethyloxy-3-hydroxy-5-(naphthalen-2-yl)phenyl]propionic acid]: the inhibition at 0.4 µM was not below 50%.

As for `Cc1cc(CCC(=O)O)cc(-c2ccc3ccccc3c2)c1OC1CCCC1` [Compound 570, 3-[4-cyclopentyloxy-3-methyl-5-(naphthalen-2-yl)phenyl]propionic acid], the inhibition at 0.4 µM was not below 50%.

Take `Cc1cc(CCC(=O)O)cc(-c2ccc3[nH]ccc3c2)c1OC1CCCC1` [Compound 571, 3-[4-cyclopentyloxy-3-(1H-indol-5-yl)-5-methylphenyl]propionic acid]: the inhibition at 0.4 µM was not below 50%.

For `Cc1n[nH]c2ccc(-c3cc(CCC(=O)O)ccc3OC3CCCC3)cc12` [Compound 574, 3-[4-cyclopentyloxy-3-(3-methyl-1H-indazol-5-yl)phenyl]propionic acid], the inhibition at 0.4 µM is not below 50%.

As to `Cc1nn(C)c2ccc(-c3cc(CCC(=O)O)ccc3OC3CCCC3)cc12` [Compound 576, 3-[4-cyclopentyloxy-3-(1,3-dimethyl-1H-indazol-5-yl)phenyl]propionic acid], the inhibition at 0.4 µM was not below 50%.

As to `COc1cc(CCC(=O)O)cc(-c2ccc3[nH]ccc3c2)c1OC1CCCC1` [Compound 578, 3-[4-cyclopentyloxy-3-(1H-indol-5-yl)-5-methoxyphenyl]propionic acid], the inhibition at 0.4 µM was not below 50%.

On to `COc1cc(CCC(=O)O)cc(-c2ccc3c(ccn3C)c2)c1OC1CCCC1` [Compound 580, 3-[4-cyclopentyloxy-3-methoxy-5-(1-methyl-1H-indol-5-yl)phenyl]propionic acid], for which the inhibition at 0.4 µM is not below 50%.

For the molecule `CCn1ccc2cc(-c3cc(CCC(=O)O)cc(OC)c3OC3CCCC3)ccc21` [Compound 582, 3-[4-cyclopentyloxy-3-(1-ethyl-1H-indol-5-yl)-5-methoxyphenyl]propionic acid], the inhibition at 0.4 µM is not below 50%.

In the case of `Cc1cc2cc(-c3cc(CCC(=O)O)ccc3OCC3CCCC3)ccc2[nH]1` [Compound 584, 3-[4-cyclopentylmethyloxy-3-(2-methyl-1H-indol-5-yl)phenyl]propionic acid], the inhibition at 0.4 µM was not below 50%.

Regarding `CNc1cc(CCC(=O)O)cc(-c2ccc3c(cnn3C)c2)c1OC1Cc2ccccc2C1` [Compound 587, 3-[4-(indan-2-yloxy)-3-(N-methylamino)-5-(1-methyl-1H-indazol-5-yl)phenyl]propionic acid], the inhibition at 0.4 µM was not below 50%.

Regarding `CCCOc1ccc(CCC(=O)O)cc1-c1ccc2[nH]ccc2c1` [Compound 588, 3-[4-n-propyloxy-3-(1H-indol-5-yl)phenyl]propionic acid], the inhibition at 0.4 µM is not below 50%.

For the origin of these results see patent publication US6867320B2, “Substituted phenylalkanoic acid derivatives and use thereof” (Asahi Kasei Pharma Corporation, priority 2002, dated 2005).
